Patent US6670381B2, “Benzamide derivatives as thrombin inhibitors” (SmithKline Beecham Corporation, priority 1998, dated 2003)

Assays:
human plasma = test: APTT (activated partial thromboplastin time), clotting time of human plasma in vitro; type: biochemical; settings: pooled citrated human plasma; for APTT: concentration of compound to extend the normal APTT by 1.5×: 1.5× extension of clotting time; for APTT: degree of extension (ratio of clotting times in presence or absence of compound): at 100 nM compound
Method: Pooled citrated (0.38% trisodium citrate w/v) plasma was prepared from blood taken from healthy volunteers and stored at −70° C. The APTT tests were performed using a Thrombtrack 4 from Nycomed. Actin reagent (a reconstituted extract from dehydrated rabbit brain, also containing ellagic acid) was obtained from Baxter Healthcare Corporation USA. Briefly, citrated plasma was added to either compound or distilled water followed by addition of actin reagent. These were then mixed for 2 min at 37° C. before adding calcium chloride to initiate clotting. Compounds extended the normal clotting time, which is in the range 30-35 seconds, to varying degrees depending on their concentrations. The degrees of extension of the APTT was calculated by the ratio of clotting times in presence or absence of compound. The concentration of a compound to extend the ‘normal’ APTT by 1.5× was used as a criterion for comparing the anti-coagulant activities of compounds.

human α-thrombin = human α-thrombin (Homo sapiens, UniProt P00734); test: Thrombin inhibitory activity, chromogenic assay; type: biochemical; settings: substrate N-p-tosyl-gly-pro-lys p-nitroanilide 100 μM, thrombin 1 nM, pH 7.4, room temperature
Method: All dilutions were made in a buffer consisting of: 50 mM HEPES, 150 mM NaCl, 5 mM CaCl2, 0.1% PEG and at pH 7.4. Briefly, the substrate (final conc. of 100 μM) was added to thrombin (final conc. of 1 nM) and the reaction monitored for 10 mins at 405 nm using a Biotek EL340 plate reader; the assay was performed at room temperature. To obtain IC50s the data were analyzed using Kineticalc™ and processed using ActivityBase™ to obtain the IC50 value.

| IC50 (human α-thrombin) | Structure (SMILES) | APTT: concentration of compound to extend the normal APTT by 1.5× (human plasma) | APTT: degree of extension (ratio of clotting times in presence or absence of compound) (human plasma) |
| --- | --- | --- | --- |
| 1.5 nM | CCCN(CC)C(=O)c1cc(C)cc(OC[C@H](C)Nc2ccncc2)c1 [Example 6, N-Ethyl-3-methyl-N-propyl-5-[2S-(pyridin-4-ylamino)-propoxy]-benzamide] | 120 (1.5×) nM | – |
| < 1 nM | CCCCN(CCC)C(=O)c1cc(C)cc(OC[C@H](C)Nc2ccncc2)c1 [Example 7, N-Butyl-3-methyl-N-propyl-5-[2S-(pyridin-4-ylamino)-propoxy]-benzamide] | – | 100 (1.31×) |
| < 1 nM | Cc1cc(OC[C@H](C)Nc2ccncc2)cc(C(=O)N(C(C)C)C2CCCCC2)c1 [Example 8, N-Cyclohexyl-N-isopropyl-3-methyl-5-[2S-(pyridin-4-ylamino)-propoxy]-benzamide] | – | 100 (1.32×) |
| < 1 nM | CCCN(C(=O)c1cc(C)cc(OC[C@H](C)Nc2ccncc2)c1)C(C)C [Example 9, N-Isopropyl-3-methyl-N-propyl-5-[2S-(pyridin-4-ylamino)-propoxy]-benzamide] | 60 (1.5×) nM | – |
| 3.4 nM | CCCN(C(=O)c1cc(Cl)cc(OC[C@H](C)Nc2ccncc2)c1)C(C)C [Example 10, 3-Chloro-N-isopropyl-N-propyl-5-[2S-(pyridin-4-ylamino)-propoxy]-benzamide] | – | 100 (1.28×) |

More lines, now with the values behind:

| Structure (SMILES) | IC50 (human α-thrombin) | APTT: concentration of compound to extend the normal APTT by 1.5× (human plasma) | APTT: degree of extension (ratio of clotting times in presence or absence of compound) (human plasma) |
| --- | --- | --- | --- |
| CCN(C(=O)c1cc(C)cc(OC[C@H](C)Nc2ccncc2)c1)C(C)C [Example 1, N-Ethyl-N-isopropyl-3-methyl-5-[2S-(pyridin-4-ylamino)-propoxy]-benzamide] | < 1 nM | 40 (1.5×) nM | – |
| Cc1cc(OC[C@H](C)Nc2ccncc2)cc(C(=O)N(C(C)C)C(C)C)c1 [Example 2, N,N-Diisopropyl-3-methyl-5-[2S-(pyridin-4-ylamino)-propoxy]-benzamide] | < 1 nM | 80 (1.5×) nM | – |
| Cc1cc(OC[C@H](C)Nc2ccncc2)cc(C(=O)N(C)C(C)C)c1 [Example 3, N-Isopropyl-3,N-dimethyl-5-[2S-(pyridin-4-ylamino)-propoxy]-benzamide] | 3 nM | 90 (1.5×) nM | – |
| CCCN(C)C(=O)c1cc(C)cc(OC[C@H](C)Nc2ccncc2)c1 [Example 4, 3,N-Dimethyl-N-propyl-5-[2S-(pyridin-4-ylamino)-propoxy]-benzamide] | 5 nM | 97 (1.5×) nM | – |
| CCCN(CCC)C(=O)c1cc(C)cc(OC[C@H](C)Nc2ccncc2)c1 [Example 5, 3-Methyl-N,N-dipropyl-5-[2S-(pyridin-4-ylamino)-propoxy]-benzamide] | < 1 nM | 110 (1.5×) nM | – |
| CCC(COc1cc(Cl)cc(C(=O)N(C(C)C)C(C)C)c1)Nc1ccncc1.Cl (stereo not shown) [Example 11, 3-Chloro-N,N-diisopropyl-5-[2-(pyridin-4-ylamino)-butoxy]-benzamide hydrochloride] | 26 nM | 650 (1.5×) nM | – |
